From US20240408114A1, “METHODS FOR PREVENTING AND TREATING ACUTE KIDNEY INJURY” (The Johns Hopkins University, priority 2021, published 2024)

Tested on: kidney T cells
Test: T cells from post-ischemic kidneys, spectral flow cytometry
Type: in vivo, mouse
Experimental: Mice were treated with 1.83 mg/kg of JHU083 or vehicle every other day via intraperitoneal injection and underwent bilateral IRI surgery on day 7 after the initial injection. […] Hollinger et al., 2020. Mice were followed up until 72 h after IRI, and T cells isolated from post-ischemic kidneys were studied (FIG. 14A).
KMNCs were isolated according to our previously described Percoll density gradient protocol. Ascon et al., 2006. Briefly, decapsulated kidneys were immersed and incubated in collagenase D (2 mg/mL; Sigma-Aldrich) solution for 30 min at 37° C. Samples were strained through 70 µm cell strainer (BD Bioscience, Franklin Lakes, NJ), washed, and resuspended in 40% Percoll (GE Healthcare, Chicago, IL) followed by gentle overlaying onto 80% Percoll. After centrifugation at 1,500 g for 30 min in brake off mode at room temperature, KMNCs were collected from interface between 40% and 80% Percoll. Spleens were strained through 40 µm cell strainer (BD Bioscience) and incubated with ammonium-chloride-potassium lysis buffer (Quality Biological, Gaithersburg, MD) for 3 min. Collected cells were washed and resuspended with Roswell Park Memorial Institute (RPMI) 1640 media (Thermo Fisher Scientific, Waltham, MA) containing 5% fetal bovine serum (FBS, Thermo Fisher Scientific). Cells were counted on hemocytometer using trypan blue exclusion under a microscope.
Cells were washed once with phosphate buffered saline (PBS) and stained with viability dye Zombie NIR Fixable Viability (BioLegend, San Diego, CA) for 15 min at room temperature. After washing with Cell Staining Buffer (BioLegend), cells were preincubated with anti-CD16/CD32 Fc receptor blocking antibody (S17011E, BioLegend) for 15 min to prevent nonspecific antibody binding. Subsequently, surface staining was performed in 50 μL of BD horizon™ Brilliant Stain buffer and surface staining antibody cocktail for 30 min at 4° C.: Pacific blue anti-CD44 (IM7, BioLegend), BV510 anti-CD8 (53-6.7, BioLegend), BV570 anti-CD45 (30-F11, BioLegend), BV605 anti-CD69 (H1.2F3, BioLegend), BV650 anti-NK1.1 (PK136, BioLegend), BV711 anti-PD1 (29F.1A12, BioLegend), BV785 anti-TCRβ (H57-597, BioLegend), PE-Cy5.5 anti-CD25 (PC61.5, Thermo Fisher Scientific), APC-R700 anti-CD62L (MEL-14, BD Bioscience), and APC-Fire810 anti-CD4 (GK1.5, BioLegend). Cells were fixed and permeabilized with Foxp3/Transcription Factor Staining kit (Thermo Fisher Scientific) for 30 min at room temperature and washed with permeabilization/wash buffer (Thermo Fisher Scientific). Intracellular staining was conducted in 50 μL of permeabilization/wash buffer with intracellular staining antibody cocktail for 45 min at room temperature: BV421 anti-Ki67 (16A8, BioLegend), Alexa Fluor 488 anti-CPT1a (8F6AE9, Abcam, Cambridge, UK), Alexa Fluor 532 anti-VDAC1 (20B12AF2, Abcam), PerCP-efluor 710 anti-FoxP3 (FJK-16S, Thermo Fisher Scientific), PE anti-GLUT1 (EPR3915, Abcam), Alexa Fluor 594 anti-pS6 (D68F8, Cell Signaling, Danvers, MA), PE-Cy5 anti-HKII (EPR20839, Abcam), PE-Cy7 anti-H3K27me3 (C36B11, Cell Signaling), and Alexa Fluor 647 anti-Tomm20 (EPR15581-54, Abcam). After staining, cells were washed with permeabilization/wash buffer then resuspended in Cell Staining Buffer. Samples were analyzed by 4-laser Aurora spectral flow cytometer (Cytek, Fremont, CA).
Glutamine antagonist, JHU083 was synthesized as previously described, Rais et al., 2016, and dissolved in 50 mM […] 4-(2-hydroxyethyl)-1-piperazineethanesulfonic acid (HEPES) buffered 0.9% saline. Aliquot stocks were stored at −80° C. and thawed right before injection. Before the IRI surgery or cisplatin injection, mice were administered 1.83 mg/kg JHU083 (equivalent to 1 mg/kg DON) or vehicle (50 mM HEPES buffered 0.9% saline) every other day via intraperitoneal injection. Following 4 consecutive dosages, mice underwent IRI surgery or cisplatin injection. The last additional dose was given at 24 h after IRI or cisplatin injection. […]

[1] = post-ischemic kidneys, vs vehicle

CCOC(=O)[C@H](CCC(=O)C=[N+]=[N-])NC(=O)[C@@H](N)CC(C)C [JHU083]
expression of CD69, CD44, and Ki67 on kidney CD4+ and CD8+ T cells (Example 1, FIG. 8, after ischemic AKI, vs vehicle control group): reduced expression
CD69+ among kidney CD8+ T cells (post-ischemic kidneys, vehicle 24.9±2.3, P=0.019): 17.8±1.4%
CD62L+ among kidney CD4+ T cells (post-ischemic kidneys, vehicle 29.0±1.6, P<0.001): 42.8±2.2
CD62L+ among kidney CD8+ T cells (post-ischemic kidneys, vehicle 44.9±3.2, P<0.001): 63.6±2.8
Ki67+ among kidney CD4+ T cells (post-ischemic kidneys, vehicle 58.7±2.9, P=0.035): 50.6±2.1%
CD69+ among kidney DN T cells (post-ischemic kidneys, vehicle 60.6±2.5, P=0.005): 72.1±2.5%
Ki67+ among kidney CD8+ T cells (post-ischemic kidneys, vehicle 61.2±4.2, P=0.043): 48.4±4.1%
CD44+ among kidney CD8+ T cells (post-ischemic kidneys, vehicle 61.4±10.7, P=0.001): 40.9±11.2%
CD44+ among kidney CD4+ T cells (post-ischemic kidneys, vehicle 67.5±1.7, P<0.001): 56.3±1.9%
Ki67+ among kidney DN T cells (post-ischemic kidneys, vehicle 78.7±3.0, P=0.001): 91.2±1.1%
CD44+ among kidney DN T cells (post-ischemic kidneys, vehicle 94.4±2.4, P=0.038): 96.4±1.2%
levels of the other metabolic enzymes in kidney T cells [1]: comparable between groups
proportions of CD4+, CD8+, DN T cells among total T cells and Tregs among CD4+ T cells [1]: comparable between groups
pS6 and HKII expression in kidney T cells (post-ischemic kidneys, vs vehicle-treated mice): enhanced
number of total T cells in post-ischemic kidneys (vs vehicle): reduced
